# Data taken from US8674115B2, “CRTH2 modulators” (Ironwood Pharmaceuticals, Inc., priority 2009, dated 2014).
# What was measured:
# CRTH2 [1] = target: T1, CRTH2 (Homo sapiens, UniProt Q9Y5Y4); assay: DPBS CD11b antagonist assay (CD11b expression in eosinophils); type: cell-based; details: challenged with 10 nM 15R-Methyl-PGD2, read-out: CD11b Antag IC50(nM) [HuEos-DPBS-vs10nM15R]
# T1 sequence (Q9Y5Y4 1-395): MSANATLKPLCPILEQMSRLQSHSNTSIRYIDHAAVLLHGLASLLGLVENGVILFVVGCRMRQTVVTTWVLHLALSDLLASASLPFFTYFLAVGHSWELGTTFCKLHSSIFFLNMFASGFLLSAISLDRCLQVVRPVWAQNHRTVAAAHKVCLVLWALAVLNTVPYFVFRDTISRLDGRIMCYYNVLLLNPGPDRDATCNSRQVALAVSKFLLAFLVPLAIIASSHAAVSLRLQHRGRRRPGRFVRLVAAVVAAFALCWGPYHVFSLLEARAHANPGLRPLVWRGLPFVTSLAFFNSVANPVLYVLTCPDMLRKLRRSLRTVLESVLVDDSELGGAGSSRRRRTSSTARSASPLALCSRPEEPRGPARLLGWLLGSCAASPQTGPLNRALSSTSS
# Experimental: DPBS CD11b Antagonist Assay.
# The potential CRTH2 antagonist activity of certain compounds was tested using a CD11b expression assay using essentially the method described by Monneret et al. (J Pharmacol Exp Ther 304:349-55, 2003). Briefly, polymorphonuclear cells (0.5 ml; 10^6/ml cells) in PBS containing 0.9 mM CaCl2 and 0.5 mM MgCl2) were preincubated with various concentrations of test compounds at room temperature for 10 minutes before they were challenged with the agonist 15R-Methyl-PGD2 (10 nM). The incubations were terminated by the addition of ice-cold FACSFlow (BD Biosciences; Cat# 342003) and centrifugation (400 g for 5 minutes at 4° C.). The cells were then incubated for 30 minutes at 4° C. with a mixture of PE-labeled mouse anti-human VLA-4 (5 μl; BD Biosciences) and FITC-labeled mouse anti-human CD11b (10 μl; Beckman Coulter). The cells were then incubated with Optilyse C (0.25 ml; Beckman Coulter) for 15 minutes, centrifuged, and then fixed in PBS (0.4 ml; calcium and magnesium free) containing 1% formaldehyde. The distribution of fluorescence intensities among 60,000 cells was measured by flow cytometry. Eosinophils were gated out on the basis of their granularity (high side scatter) and labeling with VLA-4 (PE fluorescence). CD11b was then measured in the eosinophil region on the basis of fluorescence due to FITC. All data were corrected for the value obtained for the corresponding isotope control antibody.
# CRTH2 [2] = target: T1, CRTH2; assay: Human whole blood CD11b antagonist assay (CD11b expression in eosinophils); type: cell-based; parameters: endogenous in cells; host or cells: eosinophils in human whole blood; details: challenged with 10 nM 15R-Methyl-PGD2, read-out: CD11b Antag IC50(nM) [HuEos-HuWB-vs10nM15R]
# Experimental: Human Whole Blood CD11B Antagonist Assay (Modified from Nicholson, et al. Pulmonary Pharmacology and Therapeutics: 20 (2007); 52-59).
# The potential CRTH2 antagonist activity of certain compounds was tested in human whole blood using an assay that tests the ability of the compounds to block the CD11b expression in eosinophils by 15-R-methyl-PGD2. A CRTH2 antagonist should block CD11b expression by subsequently added 15-Methyl-PGD2. Human whole blood (200 μL) was incubated at 37° C. for 10 minutes in the presence of various concentrations of test compounds before being challenged with the agonist 15R-Methyl-PGD2 (10 nM). Reactions were terminated by the addition of ice-cold PBS+0.5% BSA+2 mMEDTA (1 mL) and centrifugation (300×g for 5 minutes at 4° C.) Cells were then incubated at 4° C. for 10 min in the presence of human IgG. Cells were then incubated for 30-45 min with a mixture of PE-Cy5-labeled mouse anti-human CD16 (10 ul; BD Biosciences) and FITC-labeled mouse anti-human CD11b (10 μL; Beckman Coulter.) After rinsing (1 mL ice-cold PBS+0.5% BSA+2 mMEDTA), red blood cells were lysed by the addition of 1 mL ice-cold H2O to the cell pellet for 30 sec-1 min immediately followed by the addition of 3.5% NaCl (300 μL.) Cells were then rinsed (2×-1 ml ice cold PBS+0.5% BSA+2 mMEDTA) and fixed in PBS containing 1% formaldehyde. The distribution of fluorescence intensities was measured by flow cytometry. Eosinophils were gated out on the basis of their granularity (high side scatter) and absence of CD-16. CD11b was then measured on this eosinophil population on the basis of fluorescence due to FITC.
IC50 (CRTH2 [1]) [nM],IC50 (CRTH2 [2]) [nM],Compound
> 500,> 500,"CCOC(=O)Cn1c(C)c(C#N)c(Cc2ccccc2S(=O)(=O)N2CCCC2)c1C [I-63, Ethyl 2-(3-cyano-2,5-dimethyl-4-(2-(pyrrolidin-1-ylsulfonyl)benzyl)-1H-pyrrol-1-yl)acetate]"
100 to 500,> 500,"Cc1nn(CC(=O)O)c(C)c1Cc1ccccc1S(=O)(=O)N1CCCC1 [I-72, 2-(3,5-dimethyl-4-(2-(pyrrolidin-1-ylsulfonyl)benzyl)-1H-pyrazol-1-yl)acetic acid]"
